US4673665A, “Process for treating anestrus in ewes or beef cattle” (Hoechst Aktiengesellschaft, priority 1982, dated 1987)

Legend:
[1] = system: sheep; conditions: i.v. injections of 250, 500 and 1,000 ng LH-RH at 2 hourly intervals over 8 days, no gestagen pretreatment; cited from earlier work
[2] = system: beef cows; assay: Example 3: PRID progesterone device for 8 days, then constant LH-RH infusion in post-partum beef cows; ovulation; type: in vivo, beef cattle; conditions: PRID for 8 days, then LH-RH constant infusion 2.5 μg/2 h; 5 beef cows
Method: 5 Beef cows were treated in the early post-partum period over a period of 8 days by inserting in them an intravaginal device (PRID® of the firm Abbott) containing progesterone. Following withdrawal of the device a LH-RH constant infusion in doses of 2.5 μg/2 h was carried out in the manner described in Example 2. Ovulation occurred during the treatment in all cows, said ovulation being characterized by an increase in the progesterone plasma level.

[3] = system: beef cows; assay: Example 2: LH-RH injections at 2 hourly intervals or constant infusion in early post-partum beef cows; progesterone and LH level; type: in vivo, beef cattle; conditions: for No. showing progesterone rise: 2 to 4 days
Method: 17 Beef cows were injected with 1.0, 2.5 and 5.0 μg of LH-RH, respectively, in the early post-partum period during 2 to 4 days at 2 hourly intervals, while 21 beef cows were given a constant infusion of identical dosage per unit of time during the same period of time.
Blood samples were taken prior to and during the treatments to determine the LH level. Blood samples for determining the progesterone level were taken during a prolonged period of time after the treatment.

[4] = system: monkey; conditions: continuous intravenous injection of LH-RH; cited from earlier work
[5] = system: female mature ewes; assay: Example 1: progesterone implant pretreatment, then constant LH-RH infusion in ewes; mating, ovulation (laparoscopy), pregnancy; type: in vivo, sheep (Clun Forest, Welsh Halfbred); conditions: for number of ovulations: laparoscopy
Method: Implants containing progesterone were administered subcutaneously to 28 female mature ewes of two different breeds ("Clun Forest" and "Welsh Halfbred") for a period of 14 days. 12 Ewes were infused constantly with 125 to 250 ng of LH-RH per hour over a period of 48 hours 2 hours before withdrawing the implants. Four ewes treated with a saline solution served as a control. The sheep were examined by laparoscopy to test them for ovulation, moreover blood samples were taken to determine the progesterone level. 24 hours after starting the infusions, onset of estrus was observed using fertile rams at 4 hourly intervals and the ewes in estrus were mated.

[6] = system: sheep; conditions: 14-day s.c. progesterone implant, then 250 ng LH-RH at 2 hourly intervals for 48 hours, cited from earlier work
[7] = 125 ng of LH-RH/h constant infusion for 48 h after 14-day progesterone implant
[8] = 250 ng LH-RH/h constant infusion for 48 h after 14-day progesterone implant

LH-RH: LH/FSH-releasing hormone, provokes release of LH and FSH from the pituitary gland
induction of estrus [1]: could not be induced
cows in which ovulation occurred during the treatment (increase in progesterone plasma level) [2]: all cows
plasma LH concentrations during treatment phase compared to pretreatment phase ([3]; all test animals, irrespective of mode of administration and dose (1.0, 2.5, 5.0 μg)): distinct increase
No. showing progesterone rise ([3]; constant infusion 1.0 μg/2 h, total 6 + 3 cows): 2
number of animals that responded (progesterone rise) ([3]; constant infusion 1.0 μg/2 h, the 3 cows with calvings in summer): 2
response (progesterone rise) ([3]; constant infusion 1.0 μg/2 h, the 6 cows treated after spring calvings): did not respond
No. showing progesterone rise ([3]; constant infusion 2.5 μg/2 h, total 6 cows): 4
No. showing progesterone rise ([3]; constant infusion 5.0 μg/2 h, total 6 cows): 4
No. showing progesterone rise ([3]; injections at 2 hourly intervals, 1.0 μg, total 6 cows): 4
No. showing progesterone rise ([3]; injections at 2 hourly intervals, 2.5 μg, total 6 cows): 4
No. showing progesterone rise ([3]; injections at 2 hourly intervals, 5.0 μg, total 5 cows): 4
pulsed LH release followed by induction of menstrual cycle and ovulation [4]: failed
rate of ovulations [5, 7]: 1.4
number of ovulations [5, 7]: 9
number of mated sheep ([5]; 125 ng of LH-RH/h constant infusion for 48 h after 14-day s.c. progesterone implant): 10
rate of ovulations [5, 8]: 1.5
number of ovulations [5, 8]: 12
number of mated sheep ([5]; 250 ng LH-RH/h constant infusion for 48 h after 14-day s.c. progesterone implant): 11
pregnancy rate ([5]; ewes treated with LH-RH after progesterone implant and mated): 75%
number of bred sheep that became pregnant ([6]; 5 bred sheep): 3
estrus and ovulation ([6]; 5 sheep): induced
